Patent US5116839A, “Use of isoxazolin-3-one derivatives as antidepressants” (Sankyo Company, Limited, priority 1989, dated 1992)
Where a name gives a salt, the structure may show the parent alone.

Legend:
reserpine-induced ptosis = experiment: Effect on reserpine-induced ptosis in the mouse; type: in vivo, mouse (male ddY); conditions: reserpine 2 mg/kg s.c.; for inhibition at 3 mg/kg / inhibition at 10 mg/kg / inhibition at 30 mg/kg / inhibition at 100 mg/kg: Mus musculus, 1.5 h, scored after 90 minutes, read-out: Inhibition rate (antagonism against reserpine-induced ptosis)
Description: (§1) The procedure employed in the tests will be explained concretely below:
1. Effect on reserpine-induced ptosis in the mouse
Male ddY mice (4 weeks of age, body weight 22-27 g) were used, divided into the indicated groups each consisting of 3 or 6 animals. The test compounds were dissolved or suspended in an appropriate solvent (physiological saline, 0.5% CMC or 1% dimethylsulfoxide solution) and were orally administered immediately before treatment with reserpine.
The vials containing the test solutions were labeled with coded ciphers and the administration was carried out in randomized order.
The mice were then subcutaneously treated with reserpine at a dose of 2 mg/kg. After 90 minutes, the extent of ptosis was scored. Grading of the score was based on the shape of eye immediately after the mice were taken out from their cages;
0: round eye shape, as normal
The inhibition rate at each dose was calculated from the scores according to the following equation: [formula] The inhibition rate was then scored on the following basis: […]

[1] = test system: spontaneous locomotor activities in mice treated with L-DOPA; experiment: Potentiating effect upon spontaneous locomotor activities in mice treated with L-DOPA; type: in vivo, mouse (male ddY); conditions: for Average locomotor activities (+/- S.E.): 1 hour, MK-486 20 mg/kg i.p. then L-DOPA i.p.
Description: as §1
2. Potentiating effect of compounds upon spontaneous locomotor activities in mice treated with L-DOPA
Male ddY mice (5 weeks old, body weight 30-33 g) were used, after divided into groups each consisting of 5 animals (experiment 1) or 15 animals (experiment 2). The test compounds were prepared as described in the anti-reserpine study, and given orally 20 minutes before administration of MK-486. In control animals, saline was similarly administered. In order to prevent decomposition of L-DOPA at the peripheral site, the mice were intraperitoneally given MK-486 (carbidopa) at a dose of 20 mg/kg and treated intraperitoneally 30 minutes later with L-DOPA. The mice were placed in a cage on a locomotor activity counter (AUTOMEX-11), one-by-one (experiment 1) or 3 mice a cage (experiment 2). Spontaneous locomotor activities were determined for an hour, and the average locomotor activity at each dose was calcultated from 5 counts. The spontaneous locomotor activity in animals treated with the compound was statistically analyzed versus the control group using Student's two-tailed t-test.

[2] = test system: spontaneous locomotor activities in mice treated with L-5-HTP; experiment: Potentiating effect upon spontaneous locomotor activities in mice treated with L-5-HTP; type: in vivo, mouse (male ddY); conditions: 3 mg/kg oral; MK-486 20 mg/kg i.p.; L-5-HTP 100 mg/kg i.p.; 15 mice; 1 hour; saline 2147(+/-334); P <0.01
Description: as §1
3. Potentiating effect of compounds upon spontaneous locomotor activities in mice treated with L-5-HTP
Male ddY mice (4 weeks old, body weight 22-25 g) were used, after divided into groups each consisting of 15 mice. Before administration of MK-486 (20 mg/kg, IP), either the test compound formulation or vehicle (control group) was orally administered. At 30 min after administration of […], L-5-HTP (100 mg/kg IP) was injected. Spontaneous locomotor activities were determined from 15 minutes after L-5-HTP. For this determination, 3 mice were placed in a locomotor counter (Automex) for an hour and the total count noted. Five such apparatuses were used for each dose, in order to eliminate different sensitivities of each apparatus. Thus, 15 mice were used in total for each dose. The average count and SE were calculated from the 5 determinations for each dose, and statistically analyzed versus control group using Student's two-tailed t-test.

Acute toxicity, oral = type: in vivo; conditions: 300 mg/kg oral in 0.5% CMC, 5 mice, observed 5 days; Compound 36 as its hydrochloride
Description: Each of the Compounds 11, 36 (as its hydrochloride), 53, 76, and 87 dissolved in a 0.5% CMC solution was orally administered to 5 mice at a dose of 300 mg/kg. Observations were made for a period of 5 days.

[3] = apparently exerted; cited from earlier work

Structure (SMILES) | Score (antagonism against reserpine-induced ptosis) (reserpine-induced ptosis; 30 mg/kg oral) | inhibition at 30 mg/kg (reserpine-induced ptosis; 30 mg/kg oral) | Score (antagonism against reserpine-induced ptosis) (reserpine-induced ptosis; 100 mg/kg oral) | inhibition at 100 mg/kg (reserpine-induced ptosis; 100 mg/kg oral) | Survival (acute toxicity) (Acute toxicity, oral) | Symptoms (acute toxicity) (Acute toxicity, oral) | other results
O=c1cc(-c2ccc(Cl)cc2)on1C[C@@H](O)CN1CCOCC1 [Compound 22, (S)-5-(p-Chlorophenyl)-2-(2-hydroxy-3-morpholinopropyl)isoxazolin-3-one] | + (71% or more) | 100% |  |  |  |  | Score (antagonism against reserpine-induced ptosis) (reserpine-induced ptosis; 3 mg/kg oral): ± (41% to 70%); Score (antagonism against reserpine-induced ptosis) (reserpine-induced ptosis; 10 mg/kg oral): ± (41% to 70%); inhibition at 3 mg/kg (reserpine-induced ptosis; 3 mg/kg oral): 56%; inhibition at 10 mg/kg (reserpine-induced ptosis; 10 mg/kg oral): 81%; Average locomotor activities (+/- S.E.) ([1]; experiment 2: 50 mg/kg oral, 15 mice, 3 mice a cage, control 666(+/-137), P <0.001): 6013(+/-629); Average spontaneous locomotor activity (+/- SE) [2]: 3544(+/-318)
NC(=O)OCC(O)Cn1oc2ccc(Cl)cc2c1=O (stereo not drawn) [Compound 87, 2-(3-Carbamoyloxy-2-hydroxypropyl)-5-chlorobenzoisoxazolin-3-one] | + (71% or more) | 75% | + (71% or more) | 100% | all the mice survived | No particular symptoms were detected | 
CN(C)CCCN1c2ccccc2CCc2ccccc21 [Imipramine.HCl, reference compound] | ± (41% to 70%) | 61% |  |  |  |  | 
O=c1cc(-c2ccc(Cl)cc2)on1CC(O)CN1CCOCC1 (stereo not drawn) [Compound 11, 5-p-chlorophenyl-2-(2-hydroxy-3-morpholinopropyl)-4-isoxazolin-3-one] | + (71% or more) | 72% |  |  | all the mice survived | No particular symptoms were detected | Score (antagonism against reserpine-induced ptosis) (reserpine-induced ptosis; 3 mg/kg oral): ± (41% to 70%); Score (antagonism against reserpine-induced ptosis) (reserpine-induced ptosis; 10 mg/kg oral): ± (41% to 70%); inhibition at 3 mg/kg (reserpine-induced ptosis; 3 mg/kg oral): 50%; inhibition at 10 mg/kg (reserpine-induced ptosis; 10 mg/kg oral): 56%; Spontaneous locomotor activity with treatment of L-DOPA (in words) ([1]; 50 mg/kg): significantly increased; Average locomotor activities (+/- S.E.) ([1]; experiment 1: 50 mg/kg oral, 5 mice one-by-one, control 160(+/-128), P <0.05): 3355(+/-878)
CN(C)CCCN1c2ccccc2CCc2ccccc21 [imipramine, 10,11-dihydro-N,N-dimethyl-5H-dibenz[b,f]azepine-5-propanamine] |  |  |  |  |  |  | Anticholinergic activity of reference (in words) [3]: anticholinergic activity which is apparently exerted
OC(COc1cc(-c2ccc(Cl)cc2)on1)CN1CCOCC1 (stereo not drawn) [Compound 76, 5-(p-Chlorophenyl)-3-(2-hydroxy-3-morpholinopropoxy)isoxazole] |  |  | + (71% or more) | 71% | all the mice survived | No particular symptoms were detected | 
OC(COc1cc(-c2ccccc2)on1)CN1CCOCC1 (stereo not drawn) [Compound 36, 3-(2-Hydroxy-3-morpholinopropoxy)-5-phenylisoxazole] |  |  | + (71% or more) | 71% | all the mice survived | No particular symptoms were detected | 
OC(COc1noc(-c2ccccc2)c1Cl)CN1CCOCC1 (stereo not drawn) [Compound 53, 4-Chloro-3-(2-hydroxy-3-morpholino-propoxy)-5-phenylisoxazole] | ± (41% to 70%) | 55% |  |  | all the mice survived | No particular symptoms were detected | 
